Laboratory results published in patent US20130022620A1, “ASSAYS AND METHODS PERTAINING TO PRE-AMYLOID INTERMEDIATES” (priority 2011, published 2013).

What was measured:
[1] = ANS binding assay; type: physicochemical; conditions: 10 μM ANS, pH 7.4
Procedure: 8-Anilinonaphthalenesulfonic Acid (ANS) is a small hydrophobic dye which is been widely used in protein folding studies. It typically binds to partially structured states which are rich in secondary structure, compact, but which have not yet established the final tertiary structure, thus this dye can be used to detect a molten globule-like character of proteins. Fluorescence spectra of ANS-peptide complexes were measured using a Spex Fluorolog fluorimeter at 25 C (370 nm excitation and 460 nm emission). ANS-peptide complexes were monitored by adding aliquots of human IAPP to a 1 cm cuvette containing 10 μM ANS at various times along the amyloid formation reaction. Final solution conditions contained 16 mM tris HCl and 10 μM ANS (pH 7.4). […] All values represent means±SEM (n=3).

[2] = system: rat INS-1 β-cells; assay: AlamarBlue cell viability assay of β-cells; type: cell-based
Procedure: Transformed rat insulinoma-1 (INS-1) β-cells (which express RAGE) are a pancreatic beta cell line commonly used for studies of h-IAPP induced toxicity. INS-1 cells were grown in RPMI 1640 supplemented with 10% fetal bovine serum (FBS), 11 mM glucose, 10 mM Hepes, 2 mM L-glutamine, 1 mM sodium pyruvate, 50 μM β-mercaptoethanol, 100 U/ml penicillin, and […] streptomycin. Cells were maintained at 37° C./5% CO2.
(§1) Cyto-toxicity was measured by AlamarBlue assay. INS-1 β-cells were seeded at a density of 30,000 cells per well in 96-well plates and cultured for 24 hours prior to stimulation with IAPP. Human and rat IAPP were dissolved and incubated in 16 mM tris HCl (pH 7.4, 25° C.) prior to cell stimulation. AlamarBlue was diluted ten-fold in culture media and cells were incubated for 5 hours at 37° C. Fluorescence (excitation 530; emission 590 nm) was measured on a Beckman Coulter DTX880 fluorescent plate reader. Values calculated were relative to those of control cells treated with buffer only. All values represent means±SEM (n=3).
Changes in cell morphology were examined by light microscopy to provide a second method of evaluating cell viability. Transformed rat INS-1 beta cells were photographed immediately prior to assessment of toxicity by Alamar blue cell viability assays. Images were taken using an Olympus BX-61 light microscope.

[3] = system: mouse aortic smooth muscle cells; assay: AlamarBlue cell viability assay of aortic smooth muscle cells; type: cell-based
Procedure: as §1, with “Mouse vascular SMCs were cultured from the aortas of 10-week-old male mice using a modification of the procedure of Tarvo and Barret. See Tarvo et al. Blood Vessels. 1980; 17:110-116. SMCs were cultured following an explant protocol in accordance with institutional guidelines. […] Cyto-toxicity” for “Cyto-toxicity”

CC[C@H](C)[C@H](NC(=O)[C@H](C)NC(=O)CNC(=O)[C@H](Cc1ccccc1)NC(=O)[C@H](CC(N)=O)NC(=O)[C@H](CC(N)=O)NC(=O)[C@H](CO)NC(=O)[C@H](CO)NC(=O)[C@H](Cc1c[nH]cn1)NC(=O)[C@@H](NC(=O)[C@H](CC(C)C)NC(=O)[C@H](Cc1ccccc1)NC(=O)[C@H](CC(N)=O)NC(=O)[C@H](C)NC(=O)[C@H](CC(C)C)NC(=O)[C@H](CCCNC(=N)N)NC(=O)[C@H](CCC(N)=O)NC(=O)[C@@H](NC(=O)[C@H](C)NC(=O)[C@@H]1CSSC[C@H](NC(=O)[C@@H](N)CCCCN)C(=O)N[C@@H](CC(N)=O)C(=O)N[C@@H]([C@@H](C)O)C(=O)N[C@@H](C)C(=O)N[C@@H]([C@@H](C)O)C(=O)N1)[C@@H](C)O)C(C)C)C(=O)N[C@@H](CC(C)C)C(=O)N[C@@H](CO)C(=O)N[C@@H](CO)C(=O)N[C@H](C(=O)N[C@@H](CC(N)=O)C(=O)N[C@H](C(=O)NCC(=O)N[C@@H](CO)C(=O)N[C@@H](CC(N)=O)C(=O)N[C@H](C(=O)N[C@@H](Cc1ccc(O)cc1)C(N)=O)[C@@H](C)O)C(C)C)[C@@H](C)O [h-IAPP, human islet amyloid polypeptide]
ANS binding to final amyloid fibrils [1]: did bind
ANS binding to monomeric form and intermediates [1]: No ANS binding was observed
cell toxicity of amyloid fibrils ([2]; amyloid fibrils added to cultured cells): No toxicity was observed
cell toxicity (AlamarBlue cell viability, light microscopy) ([2]; peptide incubated in buffer at room temperature for various times, then applied to INS-1 β-cells): maximum toxicity was observed at intermediate time points
toxicity of resuspended pellet after ultracentrifugation ([2]; resuspended pellet added to beta cells): the resuspended pellet is not
toxicity of soluble phase after ultracentrifugation ([2]; supernatant added to beta cells): toxic to beta cells
toxicity to smooth muscle cells ([3]; h-IAPP intermediates): toxic to smooth muscle cells
toxicity to RAGE-null versus wild type SMCs ([3]; increasing amounts of h-IAPP toxic species): genetic deletion of RAGE protects SMCs from h-IAPP toxicity compared to WT SMCs
